# Source: paper PMC5880808, “A lever-like transduction pathway for long-distance chemical- and mechano-gating of the mechanosensitive Piezo1 channel” (Nature Communications, 2018)
# Assays:
# [1] = biological target: T1, mPiezo1 (Mus musculus, UniProt E2JF22); test: Fura-2 single-cell Ca2+ imaging of mPiezo1-mCherry-transfected HEK293T cells; type: cell-based; conditions: for Ca2+ response (Fura-2 ratio): mCherry-positive HEK293T cells transfected with mPiezo1-mCherry
# T1 construct: The full-length mPiezo1 has 2547 amino acids in each monomer; expressed in transfected cells; host or cells: HEK293T
# T1 sequence (E2JF22 whole entry): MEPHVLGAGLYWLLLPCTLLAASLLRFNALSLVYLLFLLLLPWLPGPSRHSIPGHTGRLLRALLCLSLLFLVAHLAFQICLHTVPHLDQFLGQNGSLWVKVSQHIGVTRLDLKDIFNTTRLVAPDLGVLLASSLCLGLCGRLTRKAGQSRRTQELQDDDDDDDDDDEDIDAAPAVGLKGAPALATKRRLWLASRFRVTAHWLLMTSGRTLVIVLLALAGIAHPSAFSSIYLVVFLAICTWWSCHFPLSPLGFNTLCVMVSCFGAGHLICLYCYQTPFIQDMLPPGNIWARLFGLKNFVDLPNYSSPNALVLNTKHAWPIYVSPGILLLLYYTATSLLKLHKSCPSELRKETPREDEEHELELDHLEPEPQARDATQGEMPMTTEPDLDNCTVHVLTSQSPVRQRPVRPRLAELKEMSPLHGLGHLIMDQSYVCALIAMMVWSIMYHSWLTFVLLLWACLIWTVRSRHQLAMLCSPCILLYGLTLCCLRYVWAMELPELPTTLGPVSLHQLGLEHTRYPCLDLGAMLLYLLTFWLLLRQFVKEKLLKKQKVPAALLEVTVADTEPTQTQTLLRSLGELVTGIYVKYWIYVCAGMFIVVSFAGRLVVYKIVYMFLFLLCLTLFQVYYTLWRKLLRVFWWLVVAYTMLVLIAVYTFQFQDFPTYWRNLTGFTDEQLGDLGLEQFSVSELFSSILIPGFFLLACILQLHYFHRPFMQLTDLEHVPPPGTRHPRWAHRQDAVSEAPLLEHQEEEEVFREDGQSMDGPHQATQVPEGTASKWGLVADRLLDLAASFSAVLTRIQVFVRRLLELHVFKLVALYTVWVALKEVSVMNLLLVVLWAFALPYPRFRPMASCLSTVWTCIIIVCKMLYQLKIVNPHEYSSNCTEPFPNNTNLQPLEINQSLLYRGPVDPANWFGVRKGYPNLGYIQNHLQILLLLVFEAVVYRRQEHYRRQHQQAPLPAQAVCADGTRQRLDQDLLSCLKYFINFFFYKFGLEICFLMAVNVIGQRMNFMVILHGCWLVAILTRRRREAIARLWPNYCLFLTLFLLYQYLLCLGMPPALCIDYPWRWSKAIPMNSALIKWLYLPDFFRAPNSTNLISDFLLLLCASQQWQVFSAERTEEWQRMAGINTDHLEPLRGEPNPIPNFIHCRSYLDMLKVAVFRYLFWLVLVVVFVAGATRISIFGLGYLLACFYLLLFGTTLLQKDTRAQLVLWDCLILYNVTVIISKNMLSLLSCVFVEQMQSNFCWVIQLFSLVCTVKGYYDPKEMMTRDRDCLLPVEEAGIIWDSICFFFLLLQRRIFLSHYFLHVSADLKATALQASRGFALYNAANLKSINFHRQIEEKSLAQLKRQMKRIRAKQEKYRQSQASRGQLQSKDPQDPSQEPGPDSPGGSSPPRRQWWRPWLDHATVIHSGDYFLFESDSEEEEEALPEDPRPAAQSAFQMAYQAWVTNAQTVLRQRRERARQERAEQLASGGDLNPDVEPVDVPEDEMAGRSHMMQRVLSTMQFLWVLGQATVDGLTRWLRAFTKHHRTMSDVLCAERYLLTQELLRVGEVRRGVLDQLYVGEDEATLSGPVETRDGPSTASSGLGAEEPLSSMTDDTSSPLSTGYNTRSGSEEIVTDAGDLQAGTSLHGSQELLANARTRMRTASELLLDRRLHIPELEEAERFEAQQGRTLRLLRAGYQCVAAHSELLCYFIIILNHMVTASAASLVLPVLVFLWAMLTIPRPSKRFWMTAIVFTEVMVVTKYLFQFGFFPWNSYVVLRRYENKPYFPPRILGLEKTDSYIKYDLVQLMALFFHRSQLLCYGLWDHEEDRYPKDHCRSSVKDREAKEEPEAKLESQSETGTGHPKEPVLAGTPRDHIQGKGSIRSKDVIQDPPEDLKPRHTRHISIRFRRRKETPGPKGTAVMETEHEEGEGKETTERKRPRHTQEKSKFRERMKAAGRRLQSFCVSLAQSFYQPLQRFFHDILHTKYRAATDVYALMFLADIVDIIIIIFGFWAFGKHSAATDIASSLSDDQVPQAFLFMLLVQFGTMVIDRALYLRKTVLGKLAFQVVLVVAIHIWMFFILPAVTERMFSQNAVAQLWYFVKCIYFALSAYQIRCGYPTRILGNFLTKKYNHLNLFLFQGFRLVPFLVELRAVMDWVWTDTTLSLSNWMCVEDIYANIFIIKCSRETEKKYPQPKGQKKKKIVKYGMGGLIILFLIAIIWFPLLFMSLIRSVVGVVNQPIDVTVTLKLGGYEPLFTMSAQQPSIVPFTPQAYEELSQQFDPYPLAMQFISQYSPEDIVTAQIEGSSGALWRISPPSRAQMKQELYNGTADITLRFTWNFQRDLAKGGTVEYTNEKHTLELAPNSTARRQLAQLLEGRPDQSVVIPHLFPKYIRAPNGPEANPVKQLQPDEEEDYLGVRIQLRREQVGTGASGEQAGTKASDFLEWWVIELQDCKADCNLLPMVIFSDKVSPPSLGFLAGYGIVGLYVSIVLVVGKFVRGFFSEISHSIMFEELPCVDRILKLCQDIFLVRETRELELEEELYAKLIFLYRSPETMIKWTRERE
# Method: Fura-2 single-cell Ca^2+ imaging was performed according to the previous protocol. In brief, mCherry-Piezo1 cDNA (1 μg)-transfected HEK293T cells were plated onto 12-mm round glass coverslips, which were coated with poly-D-lysine and placed in 24-well plates, and subject to Fura-2 single-cell Ca^2+ imaging about 36 h post transfection. Cells were washed with buffer containing 1× HBSS (1.3 mM Ca^2+) and 10 mM HEPES (pH 7.2), incubated with 2.5 μM Fura-2 and 0.05% Pluronic F-127 (Life Technologies) for 30 min, then washed again with the previously mentioned buffer. The coverslip was mounted into an inverted Nikon-Tie microscope equipped with a CoolSNAP charge-coupled devise (CCD) camera and Lambda XL light box (Sutter Instrument), and mCherry-positive and -negative cells were selected for measurement of the 340/380 ratio with a ×20 objective (numerical aperture 0.75) using the MetaFluor Fluorescence Ratio Imaging software (Molecular Device).
# [2] = biological target: T1, mPiezo1; test: Inside-out patch recording of single-channel activity, compound in pipette solution; type: cell-based; conditions: −80 mV
# Source text: For inside-out patch-clamp recordings using an Axopatch 200B amplifier (Axon Instruments), the “extracellular” pipette solution consists of (in mM) the following: 130 NaCl, 5 KCl, 10 HEPES, 1 CaCl2, 1 MgCl2, and 10 TEA-Cl (pH 7.3 with NaOH), and the intracellular “bath” solution contains (in mM) the following: 140 KCl, 10 HEPES, 1 MgCl2, and 10 glucose (pH 7.3 with KOH). All experiments were done at room temperature. Currents were sampled at 20 kHz using Clampex 10.4 software (Axon Instruments) and filtered at 2 kHz. Additional offline filtering of 1 kHz was applied to the recordings for display. Single-channel activity in the presence or absence of Jedi or Yoda1 was continuously recorded for 5 min at −80 mV. The single-channel open probability (NPo) and unitary conductance of mPiezo1 were analyzed using the pClamp software built-in features. Current amplitudes of individual cells recorded at −80 mV were calculated from Gaussian fits to the current amplitude histograms.
# [3] = biological target: T1, mPiezo1; test: SPR binding to immobilized purified protein; conditions: immobilized mPiezo1 in C12E10, 25 °C
# Method: We next employed the surface plasmon resonance (SPR) binding assay to examine whether Jedi1/2 bind directly to purified mPiezo1 proteins solubilized in the C12E10 detergent (Supplementary Fig. 2a, b). Based on an amine-coupling method, Piezo1 proteins (50 μg/ml) were optimally immobilized onto a research-grade CM5 sensor chip by using a buffer containing 10 mM sodium acetate (pH 5.0), 150 mM NaCl, 0.026% C12E10, and 0.05% Surfactant P20. […] Given the hydrophilic nature of Jedi1/2, it is possible that the amine-based attachment of the purified Piezo1 protein to the SPR sensor chip might affect the binding. […] Nevertheless, given their low binding affinity, we could not totally exclude the possibility that Jedi1/2 might indirectly activate Piezo1 in the cell.
# (§1) Real-time binding and analysis by SPR were conducted on BIAcore T200 instrument (GE Healthcare) at 25 °C. Proteins were immobilized on a research-grade CM5 sensor chip by amine-coupling methods. During the pH scouting process, 10 mM sodium acetate at various pH including 4.0, 4.5, 5.0, and 5.5 and protein concentrations varying between 10 and 100 μg/ml were screened before immobilization. Except pH 4.5 for mPiezo1-(1–2190), pH 5.0 was used for all other proteins, including mPiezo1, CED, Δ15-16, and Δ19-20. All proteins were diluted to 50 μg/ml in buffer containing 10 mM sodium acetate at the abovementioned pH, 0.026% C12E10 detergent, and 150 mM NaCl, except that the soluble CED proteins, which were diluted in 150 mM NaCl without detergent. During the immobilization process, the CM5 sensor was activated with NHS first, allowing the amine-containing proteins to be coupled to the sensor through NHS. […]
# (§2) For data collection, compounds at various concentrations were diluted in a running buffer containing 1× PBS, 0.026% detergent C12E10, and 0.05% Surfactant P20 (GE Healthcare Bio-Sciences AB) and injected over the flow cells with at a 30 μl/min flow rate. […] Data were analyzed with the BIAcore T200 evaluation software by fitting to a 1:1 affinity-binding model.
# [4] = biological target: T2, mPiezo1(1–2190) (Mus musculus, UniProt E2JF22); test: SPR binding to immobilized purified protein; conditions: FPLC fraction of trimeric proteins
# T2 construct: N-terminal fragment containing residues 1–2190 [mPiezo1(1–2190)]; GST (PreScission site) (cleaved yes); made in house; host or cells: HEK293T
# T2 sequence (E2JF22 1-2190): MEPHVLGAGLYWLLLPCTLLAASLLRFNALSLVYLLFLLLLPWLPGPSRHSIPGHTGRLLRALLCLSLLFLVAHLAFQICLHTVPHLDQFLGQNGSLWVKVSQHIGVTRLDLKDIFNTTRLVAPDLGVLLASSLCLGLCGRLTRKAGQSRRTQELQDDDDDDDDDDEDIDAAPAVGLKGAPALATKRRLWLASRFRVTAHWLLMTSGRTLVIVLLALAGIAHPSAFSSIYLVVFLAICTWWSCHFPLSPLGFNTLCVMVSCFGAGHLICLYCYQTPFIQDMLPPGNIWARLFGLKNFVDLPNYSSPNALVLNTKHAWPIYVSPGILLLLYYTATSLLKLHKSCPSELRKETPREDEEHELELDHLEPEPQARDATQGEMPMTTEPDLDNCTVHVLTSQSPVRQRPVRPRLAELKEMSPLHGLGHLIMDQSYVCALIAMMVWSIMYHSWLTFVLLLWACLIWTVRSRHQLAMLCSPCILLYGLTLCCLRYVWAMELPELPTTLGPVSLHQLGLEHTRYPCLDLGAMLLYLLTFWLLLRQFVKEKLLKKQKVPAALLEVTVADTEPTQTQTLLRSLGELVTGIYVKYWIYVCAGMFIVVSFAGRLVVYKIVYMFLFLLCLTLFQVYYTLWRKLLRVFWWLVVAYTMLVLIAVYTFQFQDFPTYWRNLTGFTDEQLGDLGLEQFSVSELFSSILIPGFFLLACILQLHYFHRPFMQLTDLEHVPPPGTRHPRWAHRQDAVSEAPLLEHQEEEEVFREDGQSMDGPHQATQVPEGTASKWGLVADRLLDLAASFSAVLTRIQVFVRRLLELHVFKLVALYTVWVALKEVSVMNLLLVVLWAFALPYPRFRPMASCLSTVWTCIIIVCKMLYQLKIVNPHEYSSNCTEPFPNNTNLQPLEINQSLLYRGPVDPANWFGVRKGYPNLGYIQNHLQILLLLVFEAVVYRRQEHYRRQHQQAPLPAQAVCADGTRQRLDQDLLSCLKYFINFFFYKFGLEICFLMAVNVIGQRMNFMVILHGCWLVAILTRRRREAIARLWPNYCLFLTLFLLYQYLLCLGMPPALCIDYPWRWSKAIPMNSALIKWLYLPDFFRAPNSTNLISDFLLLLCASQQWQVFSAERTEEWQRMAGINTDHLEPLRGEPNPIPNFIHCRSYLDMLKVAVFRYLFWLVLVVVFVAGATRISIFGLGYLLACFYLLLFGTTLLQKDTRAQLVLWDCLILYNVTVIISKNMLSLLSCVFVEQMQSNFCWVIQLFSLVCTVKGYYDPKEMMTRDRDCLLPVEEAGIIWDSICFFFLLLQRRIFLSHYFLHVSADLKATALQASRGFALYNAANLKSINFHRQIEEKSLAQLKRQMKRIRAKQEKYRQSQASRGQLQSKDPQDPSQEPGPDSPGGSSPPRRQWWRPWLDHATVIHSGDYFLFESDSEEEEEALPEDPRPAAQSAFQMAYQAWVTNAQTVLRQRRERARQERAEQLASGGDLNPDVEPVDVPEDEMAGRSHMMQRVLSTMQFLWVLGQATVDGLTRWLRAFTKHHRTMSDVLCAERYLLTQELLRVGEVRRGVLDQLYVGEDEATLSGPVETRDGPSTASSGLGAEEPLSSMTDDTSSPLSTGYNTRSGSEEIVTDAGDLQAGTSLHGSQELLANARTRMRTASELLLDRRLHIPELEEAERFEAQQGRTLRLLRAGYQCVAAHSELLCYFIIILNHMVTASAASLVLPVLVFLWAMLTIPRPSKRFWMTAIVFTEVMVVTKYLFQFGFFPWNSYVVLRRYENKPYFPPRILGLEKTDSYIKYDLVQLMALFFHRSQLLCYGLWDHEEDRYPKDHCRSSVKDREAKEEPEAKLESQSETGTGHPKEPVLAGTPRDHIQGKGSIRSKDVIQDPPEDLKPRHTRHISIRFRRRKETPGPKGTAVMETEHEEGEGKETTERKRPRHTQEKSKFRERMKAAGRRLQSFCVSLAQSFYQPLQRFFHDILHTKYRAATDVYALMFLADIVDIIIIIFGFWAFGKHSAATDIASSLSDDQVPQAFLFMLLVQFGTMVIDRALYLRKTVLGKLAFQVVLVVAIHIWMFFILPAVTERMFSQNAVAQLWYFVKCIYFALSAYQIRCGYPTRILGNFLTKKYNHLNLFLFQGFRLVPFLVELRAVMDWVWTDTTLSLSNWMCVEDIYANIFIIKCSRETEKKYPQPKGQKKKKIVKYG
# Source text: Since Jedi1/2 act through the extracellular side of Piezo1, we asked if it might bind to the C-terminal extracellular domain (CED; 2214–2457) that trimerizes to form the extracellular Cap-structure of the central ion-conducting pore module (Fig. 1)[8]. However, none of Jedi1/2, Yoda1, and the control compound bound to the purified CED proteins (without the use of the C12E10 detergent since they are soluble proteins; Fig. 4a–h). We next purified the large N-terminal fragment containing residues 1–2190 [mPiezo1(1–2190)] using the same purification procedure for mPiezo1. […] We used the FPLC fraction corresponding to the trimeric proteins (peak 2 of Supplementary Fig. 2d) for SPR binding assay. […] Given that Jedi1/2 function through the extracellular side, we propose that Jedi1/2 bind to the extracellular loop regions of the blade. The distant location of the Jedi action region relative to the pore indicates a distinct long-distance allosteric gating of Piezo1.
# as §1, with “detergent.” for “detergent. During the immobilization process, the CM5 sensor was activated with NHS first, allowing the amine-containing proteins to be coupled to the sensor through NHS.”
# as §2
# [5] = biological target: T3, L1342A/L1345A mutant proteins (Mus musculus, UniProt E2JF22, L1342A/L1345A); test: SPR binding to purified L1342A/L1345A mutant protein
# T3 construct: The full-length mPiezo1 has 2547 amino acids in each monomer; GST (PreScission site) (cleaved yes); made in house; host or cells: HEK293T
# T3 sequence (E2JF22 whole entry L1342A/L1345A): as the sequence (E2JF22 whole entry) above, with L1342A, L1345A counted along it
# Method: Real-time binding and analysis by SPR were conducted on BIAcore T200 instrument (GE Healthcare) at 25 °C. Proteins were immobilized on a research-grade CM5 sensor chip by amine-coupling methods. During the pH scouting process, 10 mM sodium acetate at various pH including 4.0, 4.5, 5.0, and 5.5 and protein concentrations varying between 10 and 100 μg/ml were screened before immobilization. Except pH 4.5 for mPiezo1-(1–2190), pH 5.0 was used for all other proteins, including mPiezo1, CED, Δ15-16, and Δ19-20. All proteins were diluted to 50 μg/ml in buffer containing 10 mM sodium acetate at the abovementioned pH, 0.026% C12E10 detergent, and 150 mM NaCl, except that the soluble CED proteins, which were diluted in 150 mM NaCl without detergent. During the immobilization process, the CM5 sensor was activated with NHS first, allowing the amine-containing proteins to be coupled to the sensor through NHS. Each CM5 sensor had 4 flow cells, and the flow cells 1 and 3 were often left blank as a reference. Diluted Piezo1 wild-type or mutant proteins (50 μg/ml) in their respective buffers were immobilized on the flow cell 2 or flow cell 4 to the similar level as indicated by the “response bound” parameter.
# For data collection, compounds at various concentrations were diluted in a running buffer containing 1× PBS, 0.026% detergent C12E10, and 0.05% Surfactant P20 (GE Healthcare Bio-Sciences AB) and injected over the flow cells with at a 30 μl/min flow rate. The proteins and the compounds were allowed to associate for 180 s and then dissociate for 180 s. Data were analyzed with the BIAcore T200 evaluation software by fitting to a 1:1 affinity-binding model.
Compound,Ca2+ response (Fura-2 ratio) [1],fold change of the open probability (NPo) [2],Kd [3] [µM],binding to mPiezo1(1–2190) proteins (SPR) [4],binding to purified L1342A/L1345A mutant proteins (SPR) [5],time course of the induced Ca2+ response ([1]; Fura-2 single-cell imaging)
Cc1oc(-c2ccccc2)cc1C(=O)O [Jedi1],caused an increase in Ca^2+,9.6 ± 2.4 fold,2750 ± 425,virtually identical fashion as to mPiezo1,retained the ability to bind,
Cc1oc(-c2cccs2)cc1C(=O)O [Jedi2],caused an increase in Ca^2+,significant increase in the opening probability,2770 ± 178,virtually identical fashion as to mPiezo1,retained the ability to bind,
"Clc1cccc(Cl)c1CSc1nnc(-c2cnccn2)s1 [Yoda1, reference compound]",also responded to Yoda1,14.8 ± 0.6 fold,45.6 ± 14.3,virtually identical fashion as to mPiezo1,retained the ability to bind,"slow activation, no decay, and poor reversibility"
